The source of these data is US11396497B2, “Proteasome inhibitors” (New Mexico Tech University Research Park Corporation, priority 2018, dated 2022).

In data set [1] the test system is MDA-MB-231 cells.
Data set [2] relates to RPMI 8226 cells.
Experimental: (§3) The cells were incubated at 37° C. in a humidified atmosphere with 5% CO2.
(§4) 100 μL of cells were added to each well of a 96 well microtiter plate at a concentration of 4×10^4 cells/mL and incubated overnight to allow proper adhesion. (RPMI 8226 cells were plated at 4×10^5 cells/mL). The cells were treated with the panel of test compounds at a series of concentrations, along with vehicle control DMSO and untreated cells as controls. After 48 h incubation, 20 μL of MTT reagent (3-(4,5-dimethylthiazol-2-yl)-2,5-diphenyltetrazolium bromide) in PBS (5 mg/mL) was added to each well of the plates. The plate was incubated for 2 h at 37° C. For adherent cell lines, the media was removed from each well of the plate and the resulting formazan crystals dissolved in 100 μL of DMSO. For RPMI 8226 cells, 200 ul of DMF/SDS mix (50% DMF. 10% w/v SDS pH<4) was used to solubilize the formazan crystals. Optical density (OD) at 490 nm was measured using a microplate reader. Cells treated with 1 μM phenyl arsine oxide (PAO) served as a positive cell-killing control. Technical replicates of these assays were performed in biological quadruplicate, and the three best values were used for analysis in order to eliminate outliers. Data presented are the average IC50 value calculated from at least 3 technical replicates with the corresponding standard deviation.
The test system of data set [3] is MCF7 cells.
Experimental: as §3, §4
Data set [4] addresses T1, chymotrypsin-like activity of the 26S proteasome (Homo sapiens, UniProt P28074).
T1 construct: endogenous in cells; host or cells: Jurkat (ATCC TIB-152, E6-1 clone) cell lysate
T1 sequence (P28074 60-263): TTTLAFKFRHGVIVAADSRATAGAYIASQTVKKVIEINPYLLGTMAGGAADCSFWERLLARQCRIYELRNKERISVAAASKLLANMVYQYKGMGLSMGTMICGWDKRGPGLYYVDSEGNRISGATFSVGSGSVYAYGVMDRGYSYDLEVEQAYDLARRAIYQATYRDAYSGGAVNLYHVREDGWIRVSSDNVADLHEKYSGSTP
Briefly: Proteasome assay, chymotrypsin-like (ChT-L) activity, Suc-LLVY-AMC, Jurkat cell lysate. The format is biochemical. To be noted: for IC50: ± S.D., read-out: Proteasome Inhibition ChT-like IC50. The method, then: (§1) The lysate was stored at −80° C. until the sample was used for the proteasome assay.
(§2) The compounds were diluted with lysis buffer; 10 μL of the compound-containing solution was added to the test wells at ten times the final concentration. […] The results are reported as the average of at least 3 technical replicates of IC50 values for proteasome inhibition.

Data set [5] has as its target T2, trypsin-like activity of the 26S proteasome (Homo sapiens, UniProt Q99436).
T2 construct: endogenous in cells; host or cells: Jurkat (ATCC TIB-152, E6-1 clone) cell lysate
T2 sequence (Q99436 44-277): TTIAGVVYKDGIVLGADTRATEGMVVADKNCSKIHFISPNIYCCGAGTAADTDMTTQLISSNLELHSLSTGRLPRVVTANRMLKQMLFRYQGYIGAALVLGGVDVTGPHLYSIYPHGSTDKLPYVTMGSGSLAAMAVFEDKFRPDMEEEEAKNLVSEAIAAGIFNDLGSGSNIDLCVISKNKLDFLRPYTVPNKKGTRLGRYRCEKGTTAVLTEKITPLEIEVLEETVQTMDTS
Kind of data set: Proteasome assay, trypsin-like (T-L) activity, SUC-RLR-AMC, Jurkat cell lysate. The format is biochemical. The method, then:
as §1, §2

Data set [6] deals with MCF7 cells. Briefly: MTT assay cytotoxicity MCF7. The note with it: read-out: Cytotoxicity MCF7 IC50. On the technique in general: Tetrazolium dyes change colour on reduction, which living cells bring about.
Experimental: as §3, §4
In data set [7] the test system is RPMI 8226 cells. Kind of data set: MTT assay cytotoxicity RPMI 8226. The note with it: read-out: Cytotoxicity RPMI 8226 IC50.
Experimental: as §3, §4
The test system of data set [8] is MDA-MB-231 cells. Kind of data set: MTT assay cytotoxicity MDA-MB-231. The note with it: read-out: Cytotoxicity MDA-MB-231 IC50.
[9] abbreviates: Table 2, P1 analogues, ± S.D., read-out: Proteasome Inhibition T-L-like IC50.
[10] abbreviates: Table 3, P2/P3 analogues, ± S.D., read-out: Proteasome Inhibition T-L-like IC50.

The structures appear in SMILES notation. Where two headings read alike, the source gives them in different places. Bounds are passed on as bounds.

`CC[C@H](C)[C@@H]1C(=O)O[C@H]1C(=O)N[C@H](C(=O)N[C@H](C(=O)OCc1ccc(Cl)cc1)C(C)C)C(C)C` [Compound 11b, 4-chlorobenzyl((2R,3S)-3-((S)-sec-butyl)-4-oxooxetane-2-carbonyl)-L-valyl-L-valinate]: the IC50 (usually the concentration needed to halve the response being measured) in data set [1] was 307 ± 166 nM; in data set [2], 88 ± 12 nM; in data set [3], 954 ± 351 nM; in data set [4] (Table 4, P4 analogues), 10.2 ± 7 nM.
As for `CC(C)C[C@@H]1C(=O)O[C@H]1C(=O)N[C@H](C(=O)N[C@H](C(=O)OCc1ccccc1)C(C)C)C(C)C` [Compound 9d, Benzyl ((2R,3S)-3-isobutyl-4-oxooxetane-2-carbonyl)-L-valyl-L-valinate], the IC50 is 6670 ± 3440 nM in data set [5] (setting [9]); about 40000 nM in data set [6] (Homo sapiens, MCF7, 48 h); 19900 ± 8060 nM in data set [7] (Homo sapiens, RPMI-8226, 48 h); 25300 ± 2940 nM in data set [8] (Homo sapiens, MDA-MB-231, 48 h); 16 ± 4.7 nM in data set [4] (Table 2, P1 analogues).
Turning to `C=CCCOC(=O)[C@@H](NC(=O)[C@@H](NC(=O)[C@@H]1OC(=O)[C@H]1[C@@H](C)CC)C(C)C)C(C)C` [Compound 11g, But-3-en-1-yl((2R,3S)-3-((S)-sec-butyl)-4-oxooxetane-2-carbonyl)-L-valyl-L-valinate], the IC50 amounted to 361 ± 43 nM in data set [1]; 264 ± 48 nM in data set [2]; 752 ± 384 nM in data set [3]; 8.7 ± 2 nM in data set [4] (Table 4, P4 analogues).
As to `CC[C@H](C)[C@@H]1C(=O)O[C@H]1C(=O)N[C@@H](CC(C)C)C(=O)N[C@H](C(=O)OCc1ccccc1)C(C)C` [Compound 10h, Benzyl((2R,3S)-3-((S)-sec-butyl)-4-oxooxetane-2-carbonyl)-L-leucyl-L-valinate], the IC50 in data set [5] (setting [10]) was 2560 ± 390 nM; in data set [1], 2080 ± 651 nM; in data set [2] it was 1780 ± 1020 nM; in data set [3], 2350 ± 458 nM; in data set [4] (Table 3, P2/P3 analogues) it was 4.7 ± 1.8 nM.
For `CC[C@H](C)[C@@H]1C(=O)O[C@H]1C(=O)N[C@H](C(=O)N[C@H](C(=O)OC)C(C)C)C(C)C` [Compound 11h, Methyl ((2R,3S)-3-((S)-sec-butyl)-4-oxooxetane-2-carbonyl)-L-valyl-L-valinate], the IC50 worked out at 506 ± 207 nM in data set [6] (Homo sapiens, MCF7, 48 h); 293 ± 71 nM in data set [7] (Homo sapiens, RPMI-8226, 48 h); 316 ± 44 nM in data set [8] (Homo sapiens, MDA-MB-231, 48 h); 24.3 ± 8.2 nM in data set [4] (Table 4, P4 analogues).
As to `CC[C@H](C)[C@@H]1C(=O)O[C@H]1C(=O)N[C@H](C(=O)N[C@H](C(=O)OCc1ccccc1)C(C)(C)C)C(C)C` [Compound 10f, Benzyl(S)-2-((S)-2-((2R,3S)-3-((S)-sec-butyl)-4-oxooxetane-2-carboxamido)-3-methylbutanamido)-3,3-dimethylbutanoate], the IC50 in data set [5] stood at 3710 ± 719 nM; in data set [6] (Homo sapiens, MCF7, 48 h) it was 1120 ± 332 nM; in data set [7] (Homo sapiens, RPMI-8226, 48 h), 1390 ± 131 nM; in data set [8] (Homo sapiens, MDA-MB-231, 48 h) it was 1110 ± 582 nM; in data set [4] (Table 3, P2/P3 analogues) it was 15.9 ± 1 nM.
`CC[C@H](C)[C@@H]1C(=O)O[C@H]1C(=O)N[C@H](C(=O)N[C@H](C(=O)OCc1ccccc1)C(C)C)C(C)(C)C` [Compound 10e, Benzyl((S)-2-((2R,3S)-3-((S)-sec-butyl)-4-oxooxetane-2-carboxamido)-3,3-dimethylbutanoyl)-L-valinate]: the IC50 in data set [5] (setting [10]) was 5180 ± 1490 nM; in data set [1] it was 1030 ± 644 nM; in data set [2], 1050 ± 750 nM; in data set [3], 2140 ± 122 nM; in data set [4] (Table 3, P2/P3 analogues) it was 22.9 ± 2.5 nM. Further, in data set [4], the “subunit selectivity, ChT-L over T-L (in words)” value (“subunit selectivity, ChT-L” for short) is given as “enhanced subunit selectivity”.
Turning to `CC[C@H](C)[C@@H]1C(=O)O[C@H]1C(=O)N[C@H](C(=O)N[C@H](C(=O)OCc1ccccc1)C(C)(C)C)C(C)(C)C` [Compound 10g, Benzyl(S)-2-((S)-2-((2R,3S)-3-((S)-sec-butyl)-4-oxooxetane-2-carboxamido)-3,3-dimethylbutanamido)-3,3-dimethylbutanoate], the IC50 in data set [5] (setting [10]) is 4530 ± 2180 nM; in data set [6] (Homo sapiens, MCF7, 48 h), 1690 ± 102 nM; in data set [7] (Homo sapiens, RPMI-8226, 48 h), 866 ± 532 nM; in data set [8] (Homo sapiens, MDA-MB-231, 48 h) it was 953 ± 484 nM; in data set [4] (Table 3, P2/P3 analogues), 21.4 ± 8.8 nM.
Take `CC[C@H](C)[C@@H]1C(=O)O[C@H]1C(=O)N[C@@H](COCc1ccccc1)C(=O)N[C@H](C(=O)OCc1ccccc1)C(C)C` [Compound 10j, BenzylO-benzyl-N-((2R,3S)-3-((S)-sec-butyl)-4-oxooxetane-2-carbonyl)-L-seryl-L-valinate]: the IC50 was 792 ± 240 nM in data set [5] (setting [10]); 2760 ± 791 nM in data set [6] (Table 3, MTT, 48 h); 1430 ± 526 nM in data set [7] (Table 3, MTT, 48 h); 2210 ± 764 nM in data set [8] (Table 3, MTT, 48 h); 6.9 ± 0.2 nM in data set [4] (Table 3, P2/P3 analogues).
Turning to `CC[C@H](C)[C@@H]1C(=O)O[C@H]1C(=O)N[C@H](C(=O)N[C@H](C(=O)OCC(C)C)C(C)C)C(C)C` [Compound 11d, Isobutyl((2R,3S)-3-((S)-sec-butyl)-4-oxooxetane-2-carbonyl)-L-valyl-L-valinate], the IC50 in data set [1] was determined as 355 ± 123 nM; in data set [2], 99 ± 7 nM; in data set [3], 634 ± 72 nM; in data set [4] (Table 4, P4 analogues) it was 9.4 ± 3.7 nM.
Regarding `CC[C@H](C)[C@@H]1C(=O)O[C@H]1C(=O)N[C@H](C(=O)N[C@H](C(=O)OCc1ccc(OC)cc1)C(C)C)C(C)C` [Compound 11f, 4-methoxybenzyl((2R,3S)-3-((S)-sec-butyl)-4-oxooxetane-2-carbonyl)-L-valyl-L-valinate], the IC50 in data set [6] (Table 4, MTT, 48 h) was 574 ± 96 nM; in data set [7] (Table 4, MTT, 48 h) it was 117 ± 47 nM; in data set [8] (Table 4, MTT, 48 h), 265 ± 114 nM; in data set [4] (Table 4, P4 analogues) it was 9 ± 4.2 nM.
For the molecule `CC(C)[C@H](NC(=O)[C@@H]1OC(=O)[C@H]1C1CCCC1)C(=O)N[C@H](C(=O)OCc1ccccc1)C(C)C` [Compound 9c, Benzyl ((2R,3S)-3-cyclopentyl-4-oxooxetane-2-carbonyl)-L-valyl-L-valinate], the IC50 is 10200 ± 3390 nM in data set [5] (setting [9]); about 25000 nM in data set [6] (Homo sapiens, MCF7, 48 h); 1980 ± 1000 nM in data set [7] (Homo sapiens, RPMI-8226, 48 h); 20600 ± 3940 nM in data set [8] (Homo sapiens, MDA-MB-231, 48 h); 13.9 ± 0.6 nM in data set [4] (Table 2, P1 analogues). In addition, the “subunit selectivity, ChT-L” value in data set [4] is “greatest selectivity”.
Take `CC[C@H](C)[C@@H]1C(=O)O[C@H]1C(=O)N[C@@H](Cc1ccccc1)C(=O)N[C@H](C(=O)OCc1ccccc1)C(C)C` [Compound 10b, Benzyl((2R,3S)-3-((S)-sec-butyl)-4-oxooxetane-2-carbonyl)-L-phenylalanyl-L-valinate]: the IC50 in data set [5] (setting [10]) was 3820 ± 812 nM; in data set [6] (Table 3, MTT, 48 h), about 5000 nM; in data set [7] (Table 3, MTT, 48 h) it was 2330 ± 610 nM; in data set [8] (Table 3, MTT, 48 h), 3440 ± 722 nM; in data set [4] (Table 3, P2/P3 analogues) it was 7.7 ± 1.7 nM. Besides, the “subunit selectivity, ChT-L” value in data set [4] is listed as “enhanced subunit selectivity”.
As to `CC(C)[C@H](NC(=O)[C@@H]1OC(=O)[C@H]1C1CCC1)C(=O)N[C@H](C(=O)OCc1ccccc1)C(C)C` [Compound 9b, Benzyl ((2R,3S)-3-cyclobutyl-4-oxooxetane-2-carbonyl)-L-valyl-L-valinate], the IC50 in data set [5] (setting [9]) is 3730 ± 775 nM; in data set [6] (Homo sapiens, MCF7, 48 h), over 50000 nM; in data set [7] (Homo sapiens, RPMI-8226, 48 h), 30400 ± 4750 nM; in data set [8] (Homo sapiens, MDA-MB-231, 48 h), about 50000 nM; in data set [4] (Table 2, P1 analogues), 26.5 ± 7.7 nM.
As for `CC[C@H](C)[C@@H]1C(=O)O[C@H]1C(=O)N[C@H](C(=O)N[C@@H](Cc1ccccc1)C(=O)OCc1ccccc1)C(C)C` [Compound 10c, Benzyl((2R,3S)-3-((S)-sec-butyl)-4-oxooxetane-2-carbonyl)-L-valyl-phenylalaninate], the IC50 in data set [5] (setting [10]) is 1660 ± 204 nM; in data set [6] (Table 3, MTT, 48 h) it was 2300 ± 142 nM; in data set [7] (Table 3, MTT, 48 h) it was 1040 ± 45 nM; in data set [8] (Table 3, MTT, 48 h), 2570 ± 705 nM; in data set [4] (Table 3, P2/P3 analogues) it was 5.4 ± 2.9 nM.
Consider `CC[C@H](C)[C@@H]1C(=O)O[C@H]1C(=O)N[C@@H](Cc1ccccc1)C(=O)N[C@@H](Cc1ccccc1)C(=O)OCc1ccccc1` [Compound 10d, Benzyl((2R,3S)-3-((S)-sec-butyl)-4-oxooxetane-2-carbonyl)-L-phenylalanyl-L-phenylalaninate], for which the IC50 in data set [5] (setting [10]) amounted to 3050 ± 1260 nM; in data set [6] (Table 3, MTT, 48 h) it was 3620 ± 2500 nM; in data set [7] (Table 3, MTT, 48 h), 1280 ± 527 nM; in data set [8] (Table 3, MTT, 48 h), 4660 ± 1540 nM; in data set [4] (Table 3, P2/P3 analogues) it was 12.6 ± 5.7 nM.
For the molecule `CC[C@H](C)[C@@H]1C(=O)O[C@H]1C(=O)N[C@H](C(=O)N[C@H](C(=O)OCC1CCCCC1)C(C)C)C(C)C` [Compound 11c, Cyclohexylmethyl((2R,3S)-3-((S)-sec-butyl)-4-oxooxetane-2-carbonyl)-L-valyl-L-valinate], the IC50 in data set [1] amounted to 1920 ± 917 nM; in data set [2], 461 ± 194 nM; in data set [3] it was 4570 ± 1650 nM; in data set [4] (Table 4, P4 analogues) it was 13 ± 5.2 nM.
